Series [1] can be described thus: Chemical stability: HMWP formation by SEC-MS. Format: physicochemical. The settings on record: 250 μM, pH 7.4, 37° C., 4 weeks. Here is the method: The aim of this study is to determine the chemical stability of GIP derivative compositions. As a measure of stability of the GIP derivative composition, the formation of high molecular weight peptide formation (% HMWP) as a function of time was analysed by size-exclusion chromatography (SEC-MS). Further, the purity loss of the GIP derivative compositions was measured by LCMS. Samples for chemical stability assays were freshly prepared before each assay. […] The pH of the sample was adjusted to the desired value using appropriate amounts of concentrated NaOH and HCl. […] Formation of covalent oligomers (HMWPs) was analysed and identified by a SEC-MS method. […] The LC system was coupled to both a TUV detector operated at 215 nm, 10 Hz and a high resolution QToF mass spectrometer from Waters (Synapt G2S) operated in positive ion mode and m/z range of 100 to 4000 with normal resolution setting. Lock mass correction against Leu-Enkephalin was done every 31 sec. Spectra were processed in MassLynx version 4.1 and MaxEnt deconvoluted.

Series [2] in a line: Dynamic Light Scattering Stability Index (DLS-SI). Format: physicochemical. To be noted: concentration only 5 μM instead of 250 μM, pH 7.4, 25° C.
The nature of series [3]: Sub-chronic in vivo study in DIO mice: food intake and body weight. Details: species or system DIO male C57BL/6J mice. The settings on record: Tables 6-8, compound 47 2 nmol/kg, GIP derivatives 30 nmol/kg. The source says:
(§1) The purpose of this example is to assess the in vivo effect of the GIP derivatives of the present invention alone and in combination with a GLP-1 receptor agonist on food intake, body weight, and glucose tolerance in diet-induced obese (DIO) mice. The GLP-1 receptor agonist used for this example was a semaglutide-like molecule that has the same pharmacological properties as semaglutide, but a slightly different structure. The compound may be synthesised using methods known in the art, e.g. as described by methods of present Example 1 or as described in WO 2006/097537, example 4.
(§2) The animals were treated once daily with the GLP-1 receptor agonist (compound no. 47) and/or a GIP derivative of the present invention exemplified by compound no.'s 5, 25 and 31, to assess weight loss, efficacy and glucose tolerance. Animals and Diet
All animal protocols were approved by an Institutional Animal Care and Use Committee and Ethical Review Committee of Novo Nordisk. Animals were housed according to Novo Nordisk rodent housing standards, and were given ad libitum access to food and water under controlled lighting (12 h:12 h light/dark cycle; lights off 18:00-06:00), temperature (23±2° C.) and relative humidity (50±20%) conditions. […]
Body weight (BW) and food intake were measured immediately prior to dosing each day. […]

The nature of series [4]: Sub-chronic in vivo study in DIO mice: IPGTT (intraperitoneal glucose tolerance test). Details: species or system DIO male C57BL/6J mice. To be noted: Tables 6-8, compound 47 2 nmol/kg, GIP derivatives 30 nmol/kg.
From the text: as §1, §2
All animal protocols were approved by an Institutional Animal Care and Use Committee and Ethical Review Committee of Novo Nordisk. […]
On the day of the glucose tolerance test (day 15), animals were fasted for 4 h. […] Tail blood glucose levels were measured and mice were injected (t=0) with an intra-peritoneal (i.p.) glucose load of 2 g/kg (200 mg/ml glucose solution, dose volume 10 ml/kg). Tail blood glucose levels were measured at times 0, 15, 30, 60, 90, 120 minutes following the i.p. glucose load. […]

Consider four molecules from patent US11633459B2, “GIP derivatives and uses thereof” (priority 2018, dated 2023).

For the molecule `CC[C@H](C)[C@H](NC(=O)[C@H](CO)NC(=O)[C@H](Cc1ccc(O)cc1)NC(=O)[C@H](CC(=O)O)NC(=O)[C@H](CO)NC(=O)[C@@H](NC(=O)[C@H](Cc1ccccc1)NC(=O)[C@@H](NC(=O)CNC(=O)[C@H](CCC(=O)O)NC(=O)[C@H](C)NC(=O)[C@@H](N)Cc1ccc(O)cc1)[C@@H](C)O)[C@@H](C)CC)C(=O)N[C@@H](C)C(=O)N[C@@H](CCSC)C(=O)N[C@@H](CC(=O)O)C(=O)N[C@@H](CCCCN)C(=O)N[C@H](C(=O)N[C@@H](Cc1c[nH]cn1)C(=O)N[C@@H](CCC(N)=O)C(=O)N[C@@H](CCC(N)=O)C(=O)N[C@@H](CC(=O)O)C(=O)N[C@@H](Cc1ccccc1)C(=O)N[C@H](C(=O)N[C@@H](CC(N)=O)C(=O)N[C@@H](Cc1c[nH]c2ccccc12)C(=O)N[C@@H](CC(C)C)C(=O)N[C@@H](CC(C)C)C(=O)N[C@@H](C)C(=O)N[C@@H](CCC(N)=O)C(=O)N[C@@H](CCCCN)C(=O)NCC(=O)O)C(C)C)[C@@H](C)CC` [hGIP(1-31)], the “HMWP formation (%/month)” value in series [1] stood at 0.15 %/month. Moreover, in series [2], the DLS-SI precipitates entry is on record as “formation of large aggregates became visible as precipitation”.
As for `CC[C@H](C)[C@H](NC(=O)[C@H](CO)NC(=O)[C@H](Cc1ccc(O)cc1)NC(=O)[C@H](CC(=O)O)NC(=O)[C@H](CO)NC(=O)[C@@H](NC(=O)[C@H](Cc1ccccc1)NC(=O)[C@@H](NC(=O)CNC(=O)[C@H](CCC(=O)O)NC(=O)[C@H](C)NC(=O)[C@@H](N)Cc1ccc(O)cc1)[C@@H](C)O)[C@@H](C)CC)C(=O)N[C@@H](C)C(=O)N[C@@H](CCSC)C(=O)N[C@@H](CC(=O)O)C(=O)N[C@@H](CCCCN)C(=O)N[C@H](C(=O)N[C@@H](Cc1c[nH]cn1)C(=O)N[C@@H](CCC(N)=O)C(=O)N[C@@H](CCC(N)=O)C(=O)N[C@@H](CC(=O)O)C(=O)N[C@@H](Cc1ccccc1)C(=O)N[C@H](C(=O)N[C@@H](CC(N)=O)C(=O)N[C@@H](Cc1c[nH]c2ccccc12)C(=O)N[C@@H](CC(C)C)C(=O)N[C@@H](CC(C)C)C(=O)N[C@@H](C)C(=O)N[C@@H](CCC(N)=O)C(=O)N[C@@H](CCCCN)C(=O)NCC(=O)N[C@@H](CCCCN)C(=O)N[C@@H](CCCCN)C(=O)N[C@@H](CC(N)=O)C(=O)N[C@@H](CC(=O)O)C(=O)N[C@@H](Cc1c[nH]c2ccccc12)C(=O)N[C@@H](CCCCN)C(=O)N[C@@H](Cc1c[nH]cn1)C(=O)N[C@@H](CC(N)=O)C(=O)N[C@H](C(=O)N[C@H](C(=O)N[C@@H](CCC(N)=O)C(=O)O)[C@@H](C)O)[C@@H](C)CC)C(C)C)[C@@H](C)CC` [hGIP(1-42)], the “HMWP formation (%/month)” value in series [1] came to 2.0 %/month.
In the case of “N^6,26-{18-[N-(17-carboxyheptadecanoyl)-D-γ-glutamyl]-10-oxo-3,6,12,15-tetraoxa-9,18-diazaoctadecanoyl}-[8-(2-amino-2-propanoic acid), 34-L-arginine]human glucagon-like peptide 1(7-37) [Compound 47, reference compound]”, in series [3], the “effect on food intake and body weight (in words)” value is listed as “induced a reduction in food intake that resulted in body weight loss”. Further, the “effect on glucose tolerance (in words)” value in series [4] is “improvement in glucose tolerance”.
“N{1}-acetyl,N{Epsilon-24}-[(4S)-4-carboxy-4-[[(4S)-4-carboxy-4-[[(4S)-4-carboxy-4-[[4-[(19-carboxynonadecanoylamino)methyl]cyclohexanecarbonyl]amino]butanoyl]-amino]butanoyl]amino]butanoyl]-[D-Tyr1,Nle14,Arg18,Aib20,Lys24]-hGIP(1-31) [Compound 25]”: the “effect on food intake and body weight (in words)” value in series [3] is “minor effect on food intake”. The “effect on glucose tolerance (in words)” value in series [4] is recorded as “improved glucose tolerance”.
